We go through two compounds from PMC3133966 (Nature neuroscience, 2011).

Test [1] addresses T1, KCNQ5 (Kv7.5); presynaptic KCNQ5 homomers (Rattus norvegicus, UniProt F1LY25). Nature of the test: whole-cell patch clamp of rat calyx of Held, outward K+ current. In kind it is cell-based. Conditions: read-out: % of control current remaining at 10 μM.
For test [2], the target named is T1, KCNQ5 (Kv7.5); presynaptic KCNQ5 homomers. Described as above. Conditions: read-out: % inhibition at 100 μM. It counts as cell-based.

T1 sequence (F1LY25 1-951): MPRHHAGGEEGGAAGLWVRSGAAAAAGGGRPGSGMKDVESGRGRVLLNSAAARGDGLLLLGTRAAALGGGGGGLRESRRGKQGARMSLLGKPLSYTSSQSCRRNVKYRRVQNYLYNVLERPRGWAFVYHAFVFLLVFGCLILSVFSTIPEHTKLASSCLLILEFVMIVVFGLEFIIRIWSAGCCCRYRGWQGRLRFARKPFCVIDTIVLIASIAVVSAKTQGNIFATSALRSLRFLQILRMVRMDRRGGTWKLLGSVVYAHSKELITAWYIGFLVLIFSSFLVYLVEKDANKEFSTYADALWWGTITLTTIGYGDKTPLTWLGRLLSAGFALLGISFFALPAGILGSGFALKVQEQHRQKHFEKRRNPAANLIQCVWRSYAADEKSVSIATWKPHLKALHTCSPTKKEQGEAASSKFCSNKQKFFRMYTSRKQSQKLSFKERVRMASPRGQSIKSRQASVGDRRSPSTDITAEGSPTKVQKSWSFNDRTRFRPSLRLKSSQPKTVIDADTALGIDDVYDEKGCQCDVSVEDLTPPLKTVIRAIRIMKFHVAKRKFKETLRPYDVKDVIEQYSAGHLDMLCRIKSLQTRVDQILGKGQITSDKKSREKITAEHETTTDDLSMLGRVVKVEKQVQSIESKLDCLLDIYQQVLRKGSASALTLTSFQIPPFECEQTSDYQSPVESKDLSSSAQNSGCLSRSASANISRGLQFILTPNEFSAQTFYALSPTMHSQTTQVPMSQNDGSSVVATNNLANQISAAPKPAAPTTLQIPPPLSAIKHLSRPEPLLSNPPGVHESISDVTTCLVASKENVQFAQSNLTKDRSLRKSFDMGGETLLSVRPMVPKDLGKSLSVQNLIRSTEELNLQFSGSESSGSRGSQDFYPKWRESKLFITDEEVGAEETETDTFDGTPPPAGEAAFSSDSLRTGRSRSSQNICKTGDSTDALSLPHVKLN

As for `O=C1N(c2ccccc2)c2ccccc2C1(Cc1ccncc1)Cc1ccncc1` [linopirdine], the remaining activity at 10 µM in test [1] came to 17 ± 4%. For the compound `O=C(O)Cc1ccccc1Nc1c(Cl)cccc1Cl` [diclofenac], the inhibition at 100 µM in test [2] was 53 ± 4%.
